Measurements: patent publication US11906523B2, “Signaling conjugates and methods of use” (VENTANA MEDICAL SYSTEMS, INC., priority 2012, dated 2024)

Assays:
[1] = UV-Vis absorbance spectra of signaling conjugates and chromophores; format: physicochemical
Text: The wavelength at which the maximum fraction of light is absorbed by a substance is referred to as λmax. Because this wavelength is absorbed to the greatest extent, it is typically referred to as the absorbance wavelength. […] While λmax designates the wavelength of maximum absorption, the FWHM designates the breadth of the spectral absorbance.
Trace A corresponds to the signaling conjugate used for FIG. 15(A) and trace B corresponds to the signaling conjugated used for FIG. 15(B); note that each signaling conjugate was analyzed with spectrometry in solution prior to staining and on the slide subsequent to having detected the HER2 (the dashed traces representing the spectra obtained on the tissue).

[2] = UV-Vis spectra of fast red and fast blue; format: physicochemical; conditions: ethyl acetate solutions, FIG. 8(B)
Text: While providing a range of new colors for the recognition of targets within biological samples is useful alone, the presently disclosed signaling conjugates are particularly useful in multiplexed assays, as well as assays using translocation probes. FIG. 8(A) is a photomicrograph of a dual stain of two gene probes on section of lung tissue testing for ALK rearrangements associated with non-small cell lung cancer. FIG. 8(B) illustrates UV-Vis spectra of fast red and fast blue in ethyl acetate solutions. The 3′ probe was detected using fast red and the 5′ probe was detected using fast blue. FIGS. 9(A) and 9(B) illustrate the traces of FIG. 8(B) separately. […] Comparing this range to the color wheel, the expected color corresponding to the spectral absorption characteristic would be either red or orange. The range of absorption is so large it essentially covers all of those wavelengths one would expect to result in a red or an orange color. […] Again, referring to the color wheel in FIG. 6(A), the absorption from 525-625 nm covers nearly half of the color wheel with blue, indigo, and violet being complementary.

[3] = absorption spectrum of signaling conjugate

Which “full width of the peak at the half maximum absorbance (FWHM)” value [1, 3] does the source give for `CN(C)c1ccc2c(-c3ccc(C(=O)NCCc4ccc(O)cc4)cc3C(=O)[O-])c3ccc(N(C)C)cc3[o+]c2c1` [5-TAMRA-tyramide conjugate] here?
Its value is “approximately 40 nm”.

What about the λmax [1, 3] of the same compound?
The λmax was 552 nm.

With `O=C([O-])C1=NN(c2ccc(S(=O)(=O)[O-])cc2)C(=O)C1N=Nc1ccc(S(=O)(=O)[O-])cc1.[Na+].[Na+].[Na+]` (stereo not shown) [Tartrazine] as the compound, how does the λmax ([1]; diazo chromophore moiety itself) read?
The λmax was “about 427 nm”.

With Fast blue as the compound, how does the “strong absorption wavelength range” value [2] read?
Its value is 525-625 nm.
